Experiments:
Type in all cases: cell-based, human
LDLr = experiment: Western blot of LDLr protein in HepG2 cells; conditions: for LDLr protein expression in human HepG2 cells (% of siScramble): HepG2 transfected with siRNA, Western blot, actin loading control, n=8
Method: (§1) HepG2 (hepatocellular carcinoma) cells were growth in Eagle's minimum essential medium (EMEM). The medium was supplemented with 10% FBS, 100 units/ml penicillin, and 100 μg/ml streptomycin. Cells were cultured in 5% CO2 at 37° C. and were harvested once a week with trypsin-EDTA. For experiments, cells were trypsinized, seeded, and cultured at least for 3 days prior to the assays.
(§2) HepG2 cells were transfected with ADCY9, SREBP2, LDLr or scramble siRNA in the presence of Lipofectamine RNAiMAX in Opti-MEM for 72 h unless otherwise stated.
(§3) For Western blotting, cells were washed with cold PBS and then scraped and lysed in ice-cold lysis buffer (50 mM Tris, pH 7.5, 150 mM NaCl, 1% Triton X-100, 0.1% SDS, 0.5% sodium deoxycholate, 1 mM PMSF, and protease inhibitor cocktail). Lysate was microcentrifugated for 20 min at 4° C. and supernatant was assessed for cell proteins. Proteins ([…]) were separated by sodium dodecyl sulfate-polyacrylamide gel electrophoresis (SDS-PAGE) followed by Western blotting to PVDF membrane.
Protein expression is represented as a percentage of the control, siScramble. n=8. Paired t-test: *=p≤0.05; **=p≤0.01; and ***=p≤0.001, relative to siScramble.

AC9 = experiment: Western blot of AC9 protein after siRNA transfection of HepG2 cells; conditions: HepG2 transfected with siRNA, actin loading control, n=8
Method: as §1, §2, §3
Results were obtained by Western blotting and actin was used as a loading control. Protein expression is represented as a percentage of the control, siScramble. n=8. Paired t-test: *=p≤0.05; **=p≤0.01; and ***=p≤0.001, relative to siScramble.

HepG2 cells [1] = experiment: Cellular cholesterol efflux toward apo A-I
Method: as §1, §2
Cells were labeled in EMEM containing 2 μCi/ml [1,2-^3H]cholesterol plus 1% FBS for 24 h at 37° C. Then, cells were equilibrated with EMEM containing 0.2% BSA for 18 h at 37° C. with or without H89 or GSK-2033. An efflux assay was performed in the absence or presence of 10 μg/ml of apo A-I. At the end of the incubation, the medium was harvested and cells were solubilized. Medium and cells were counted for radioactivity in a […]. The percentage of efflux was calculated by subtracting the radioactive counts in the medium in the absence of cholesterol acceptors from the radioactive counts in the presence of acceptor and then dividing by the sum of the radioactive counts in the medium plus the cell fraction.

ABCA1 = experiment: Western blot of ABCA1 protein in HepG2 cells; conditions: HepG2, siAC9 plus 2 μM H89, 24 h
Method: as §1, §2, §3

HepG2 cells [2] = experiment: 3H-CE-LDL cell association assay; conditions: HepG2, siAC9 plus 2 μM H89, 24 h
Method: as §1, §2

[3] = HepG2, siAC9 plus 2 μM H89, 24 h

| Compound | LDLr protein expression in human HepG2 cells (% of siScramble) (LDLr) | AC9 protein expression in human HepG2 cells (% of siScramble) (AC9) | further results |
| --- | --- | --- | --- |
| ADCY9-1: siRNA, sense SEQ ID NO: 3 CGAAAUGGAAGAUGGGAAAUU, antisense SEQ ID NO: 4 UUUCCCAUCUUCCAUUUCGUU; targets ADCY9 mRNA Exon 2 (listed as RNA, chemistry not fully specified) | 131% ** | 24% *** | – |
| ADCY9-4: siRNA, sense SEQ ID NO: 9 GCACCAAGAUCCAGAGCAUUU, antisense SEQ ID NO: 10 AUGCUCUGGAUCUUGGUGCUU; targets ADCY9 mRNA Exon 10 (listed as RNA, chemistry not fully specified) | 150% ** | 15% *** | – |
| ADCY9-2: siRNA, sense SEQ ID NO: 5 CGAAACAGGAAUAGAAGAAUU, antisense SEQ ID NO: 6 UUCUUCUAUUCCUGUUUCGUU; targets ADCY9 mRNA Exon 10 (listed as RNA, chemistry not fully specified) | 122% ** | 16% *** | – |
| CC(C)c1c(C(=O)Nc2ccccc2)c(-c2ccccc2)c(-c2ccc(F)cc2)n1CC[C@@H](O)C[C@@H](O)CC(=O)O [atorvastatin, reference compound] | – | – | LDLr protein expression, combined treatment (LDLr; HepG2, 300 μM exogenous cAMP plus 5 μM atorvastatin): increased |
| Cc1cc(C)c(S(=O)(=O)N(Cc2ccc(-c3cccc(S(C)(=O)=O)c3)cc2)Cc2ccc(C(F)(F)F)o2)c(C)c1 [GSK-2033] | – | – | ABCA1-mediated cholesterol efflux, effect on siAC9-mediated increase (HepG2 cells [1]; HepG2, siAC9 plus 5 μM GSK-2033, 24 h): significantly reduce |
| ADCY9-ID1039: siRNA, sense SEQ ID NO: 1 CCUGAUGAAAGAUUACUUUTT, antisense SEQ ID NO: 2 AAAGUAAUCUUUCAUCAGGCT; targets ADCY9 mRNA Exon 5 (chemistry not fully specified) | 123% * | 15% *** | – |
| O=S(=O)(NCCNC/C=C/c1ccc(Br)cc1)c1cccc2cnccc12 [H89] | – | – | ABCA1 protein expression, effect on siAC9-mediated increase (ABCA1): reversed; LDLr protein expression, effect on siAC9-mediated increase (LDLr; [3]): reversed; cholesterol efflux in siAC9-treated cells (HepG2 cells [1]; [3]): not; 3H-CE-LDL association in siAC9-treated cells (HepG2 cells [2]): reduction |
| ADCY9-3: siRNA, sense SEQ ID NO: 7 AGGAAGAGGUCAUAAAGAAUU, antisense SEQ ID NO: 8 UUCUUUAUGACCUCUUCCUUU; targets ADCY9 mRNA Exon 5-6 (listed as RNA, chemistry not fully specified) | 126% * | 17% *** | – |

Source: US20260043031A1, “COMPOSITIONS AND METHODS FOR INHIBITING ADENYLATE CYCLASE 9 (AC9)” (INSTITUT DE CARDIOLOGIE DE MONTRÉAL, priority 2022, published 2026)
